# Assay results reported in patent US5612329A (priority 1995, dated 1997).
# Tests used:
# pBR322 DNA = format: biochemical; conditions: 37° C., 18 hr, pH 7.4
# CCRF-CEN cells = assay: In vitro cytotoxicity / cell growth inhibition, leukemia; format: cell-based; conditions: Homo sapiens, 48 hr, read-out: log10 G150 (converted)
# Procedure: (§1) The anti-proliferative activities of the aziridinylpolyamines obtained in Synthesis Examples 1-4 were assessed by determining log10 G150 values against human cancer cell lines using the screening strategy described by Boyd et al, Drug Devel. Res. 34:91-109 (1995).
# (§2) More specifically, the compounds were tested at a minimum of five concentrations at 10-fold dilutions using a 48 hr continuous exposure protocol. Each cell line shown in Table 1 below was inoculated onto microtiter plates. After a pre-incubation period of 24-48 hr at 37° C., the test compounds were added, and the culture was incubated for an additional 48 hr at 37° C. Cell viability or cell growth end-point determinations were performed by fixation of the cells, followed by staining with sulforhodamine B (Monks et al, J. Natl. Cancer Inst., 83:757-766 (1991)).
# K-562 cells = assay: as above; format: cell-based; conditions: Homo sapiens, K562; K-562, leukemia, 48 hr; read-out: log10 G150 (converted)
# Procedure: as §1, §2
# MOLT-4 cells = assay: as above; format: cell-based; conditions: Homo sapiens; MOLT-4, leukemia, 48 hr; read-out: log10 G150 (converted)
# Procedure: as §1, §2
# SR cells = assay: as above; format: cell-based; conditions: Homo sapiens, 48 hr, read-out: log10 G150 (converted)
# Procedure: as §1, §2
# A549/ATCC cells = assay: In vitro cytotoxicity / cell growth inhibition, non-small cell lung cancer; format: cell-based; conditions: Homo sapiens, 48 hr, read-out: log10 G150 (converted)
# Procedure: as §1, §2
# EKVX cells = assay: as above; format: cell-based; conditions: Homo sapiens, 48 hr, read-out: log10 G150 (converted)
# Procedure: as §1, §2
# HOP-62 cells = assay: as above; format: cell-based; conditions: Homo sapiens; HOP-62, non-small cell lung cancer, 48 hr; read-out: log10 G150 (converted)
# Procedure: as §1, §2
# HOP-92 cells = assay: as above; format: cell-based; conditions: Homo sapiens; HOP-92, non-small cell lung cancer, 48 hr; read-out: log10 G150 (converted)
# Procedure: as §1, §2
# NCl-H226 cells = assay: as above; format: cell-based; conditions: Homo sapiens, 48 hr, read-out: log10 G150 (converted)
# Procedure: as §1, §2
# NCl-H23 cells = assay: as above; format: cell-based; conditions: Homo sapiens, 48 hr, read-out: log10 G150 (converted)
# Procedure: as §1, §2
# NCl-H322M cells = assay: as above; format: cell-based; conditions: Homo sapiens, 48 hr, read-out: log10 G150 (converted)
# Procedure: as §1, §2
# NCl-H460 cells = assay: as above; format: cell-based; conditions: Homo sapiens, 48 hr, read-out: log10 G150 (converted)
# Procedure: as §1, §2
# NCl-H522 cells = assay: as above; format: cell-based; conditions: Homo sapiens, 48 hr, read-out: log10 G150 (converted)
# Procedure: as §1, §2
# COLO 205 cells = assay: In vitro cytotoxicity / cell growth inhibition, colon cancer; format: cell-based; conditions: Homo sapiens; COLO 205, colon cancer, 48 hr; read-out: log10 G150 (converted)
# Procedure: as §1, §2
# HCC-2998 cells = assay: as above; format: cell-based; conditions: Homo sapiens; HCC-2998, colon cancer, 48 hr; read-out: log10 G150 (converted)
# Procedure: as §1, §2
# HCT-116 cells = assay: as above; format: cell-based; conditions: Homo sapiens; HCT-116, colon cancer, 48 hr; read-out: log10 G150 (converted)
# Procedure: as §1, §2
# HCT-15 cells = assay: as above; format: cell-based; conditions: Homo sapiens; HCT-15, colon cancer, 48 hr; read-out: log10 G150 (converted)
# Procedure: as §1, §2
# HT29 cells = assay: as above; format: cell-based; conditions: Homo sapiens, HT-29, 48 hr, read-out: log10 G150 (converted)
# Procedure: as §1, §2
# KM12 cells = assay: as above; format: cell-based; conditions: Homo sapiens, 48 hr, read-out: log10 G150 (converted)
# Procedure: as §1, §2
# SW-620 cells = assay: as above; format: cell-based; conditions: Homo sapiens; SW-620, colon cancer, 48 hr; read-out: log10 G150 (converted)
# Procedure: as §1, §2
# SF-268 cells = assay: In vitro cytotoxicity / cell growth inhibition, CNS cancer; format: cell-based; conditions: Homo sapiens; SF-268, CNS cancer, 48 hr; read-out: log10 G150 (converted)
# Procedure: as §1, §2
# SF-295 cells = assay: as above; format: cell-based; conditions: Homo sapiens; SF-295, CNS cancer, 48 hr; read-out: log10 G150 (converted)
# Procedure: as §1, §2
# SF-539 cells = assay: as above; format: cell-based; conditions: Homo sapiens; SF-539, CNS cancer, 48 hr; read-out: log10 G150 (converted)
# Procedure: as §1, §2
# SNB-19 cells = assay: as above; format: cell-based; conditions: Homo sapiens; SNB-19, CNS cancer, 48 hr; read-out: log10 G150 (converted)
# Procedure: as §1, §2
# SNB-75 cells = assay: as above; format: cell-based; conditions: Homo sapiens; SNB-75, CNS cancer, 48 hr; read-out: log10 G150 (converted)
# Procedure: as §1, §2
# U251 cells = assay: as above; format: cell-based; conditions: Homo sapiens, U-251, 48 hr, read-out: log10 G150 (converted)
# Procedure: as §1, §2
# 786-0 cells = assay: In vitro cytotoxicity / cell growth inhibition, renal cancer; format: cell-based; conditions: Homo sapiens; 786-0, renal cancer, 48 hr; read-out: log10 G150 (converted)
# Procedure: as §1, §2
# A498 cells = assay: as above; format: cell-based; conditions: Homo sapiens, 48 hr, read-out: log10 G150 (converted)
# Procedure: as §1, §2
# ACHN cells = assay: as above; format: cell-based; conditions: Homo sapiens, 48 hr, read-out: log10 G150 (converted)
# Procedure: as §1, §2
# CAKI-1 cells = assay: as above; format: cell-based; conditions: Homo sapiens; CAKI-1, renal cancer, 48 hr; read-out: log10 G150 (converted)
# Procedure: as §1, §2
# RXF-393 cells = assay: as above; format: cell-based; conditions: Homo sapiens; RXF-393, renal cancer, 48 hr; read-out: log10 G150 (converted)
# Procedure: as §1, §2
# SN12C cells = assay: as above; format: cell-based; conditions: Homo sapiens, 48 hr, read-out: log10 G150 (converted)
# Procedure: as §1, §2
# TK-10 cells = assay: as above; format: cell-based; conditions: Homo sapiens; TK-10, renal cancer, 48 hr; read-out: log10 G150 (converted)
# Procedure: as §1, §2
# UO-31 cells = assay: as above; format: cell-based; conditions: Homo sapiens; UO-31, renal cancer, 48 hr; read-out: log10 G150 (converted)
# Procedure: as §1, §2
compound,measurement,setting,value
"C(CCNCCCN1CC1)CNCCCN1CC1 [Synthesis Example 1, 1,12-Diaziridinyl-4,9-diazadodecane]",concentration at which DNA was found to be cross-linked,pBR322 DNA,≤ 0.1 µM
same,GI50,CCRF-CEN cells,63.1 nM
same,GI50,K-562 cells,4370 nM
same,GI50,MOLT-4 cells,44.7 nM
same,GI50,SR cells,18.2 nM
same,GI50,A549/ATCC cells,891 nM
same,GI50,EKVX cells,3470 nM
same,GI50,HOP-62 cells,58.9 nM
same,GI50,HOP-92 cells,219 nM
same,GI50,NCl-H226 cells,724 nM
same,GI50,NCl-H23 cells,263 nM
same,GI50,NCl-H322M cells,4570 nM
same,GI50,NCl-H460 cells,363 nM
same,GI50,NCl-H522 cells,427 nM
same,GI50,COLO 205 cells,407 nM
same,GI50,HCC-2998 cells,1820 nM
same,GI50,HCT-116 cells,1260 nM
same,GI50,HCT-15 cells,11500 nM
same,GI50,HT29 cells,3630 nM
same,GI50,KM12 cells,15500 nM
same,GI50,SW-620 cells,2630 nM
same,GI50,SF-268 cells,148 nM
same,GI50,SF-295 cells,155 nM
same,GI50,SF-539 cells,37.2 nM
same,GI50,SNB-19 cells,1120 nM
same,GI50,SNB-75 cells,27.5 nM
same,GI50,U251 cells,417 nM
same,GI50,786-0 cells,11.2 nM
same,GI50,A498 cells,1820 nM
same,GI50,ACHN cells,141 nM
same,GI50,CAKI-1 cells,18.6 nM
same,GI50,RXF-393 cells,138 nM
same,GI50,SN12C cells,135 nM
same,GI50,TK-10 cells,3240 nM
same,GI50,UO-31 cells,575 nM
